Measured values taken from patent US20250222119A1, “ENGINEERING OF MULTIFUNCTIONAL PEPTIDES FOR CONTROLLED DRUG DELIVERY” (The Johns Hopkins University, priority 2022, published 2025).

Tests used:
[1] = test system: normotensive Dutch Belted rabbits; test: Rabbit IOP measurements after intracameral injection or topical dosing; assay type: in vivo; details: single intracameral injection
Method: For the ICM injection procedure, rabbits were anesthetized with ketamine/xylazine and received topical anesthesia with 0.5% proparacaine hydrochloride. […] After the procedure, topical bacitracin-neomycin-polymyxin ophthalmic ointment was applied to both eyes to prevent infection and dry eyes. […] The IOP were measured immediately before the topical dosing (0 h), and at 2, 4, 6 and 8 h after the eyedrop administration.

[2] = test system: ARPE-19 cells; test: Cell-penetration assay with biotinylated peptides in induced and non-induced ARPE-19 cells; assay type: cell-based; details: C-terminal biotinylated peptide 100 μM, 6 h, 37° C.
Method: Four 96 well plates per group were seeded at 0.01×10^6 cells/well. ARPE-19 cells were either cultured with DMEM:F12 medium containing 10% FBS according to protocol provided by the vendor (non-induced) or cultured in DMEM high glucose, pyruvate media with […] of ferric ammonium citrate (Wolkow, N. et al., Exp Eye Res 128, 92-101, (2014)) for 2 months (induced) (Kim, Y. C. et al. Drug Deliv Transl Res, doi:10.1007/s13346-021-00987-6 (2021)). The expression of melanin was confirmed visually with bright field microscopy and by measuring absorbance at 475 nm (>0.4 a.u., not shown). Within each plate, 12 wells were randomly selected to quantify the cell numbers with an automated cell counter (Countess 3 Automated Cell Counter, Thermo Fisher) for normalization in the cell uptake study. Next, 100 μL (100 μM in pH 6.5 PBS) of each of the 127 C-terminal biotinylated peptides was added to n=3 wells for both the induced and non-induced ARPE-19 cells for 6 h at 37° C. The cells were then washed thoroughly 5 times with PBS solution to remove extracellular peptide. To quantify cell-associated peptides, the cells were lysed with 100 μL of RIPA lysis buffer at 4 C for 48 h. […] The mean intracellular concentration values were grouped by cell types (induced or non-induced), and the two-sample Wilcoxon test (Mann-Whitney) was calculated using the R function wilcox.test. Intracellular concentration values were also plotted against experimental melanin binding and the relationship was quantified using a simple linear model and its corresponding R^2.
It was next characterized how the predicted cell-penetrating properties of the peptides affected cell uptake in a retinal pigment epithelium (RPE) cell line (ARPE-19). ARPE-19 cells were cultured using standard methods (non-induced, n=3) and using culture conditions that induce melanin production (induced, n=3) (Kim, Y. C. et al., Drug Deliv Transl Res, doi:10.1007/s13346-021-00987-6 (2021)).

Compound	time for the average ΔIOP to return to baseline [1] [days]	peak reduction in IOP from baseline (ΔIOP) ([1]; at 2 days, n=5) [mmHg]	cell uptake (intracellular peptide concentration) ([2]; non-induced ARPE-19 cells) [pmol/100K cells]	cell uptake (intracellular peptide concentration) ([2]; induced (melanin-producing) ARPE-19 cells) [pmol/100K cells]
Brc1c(NC2=NCCN2)ccc2nccnc12 [brimonidine]	8	−2.6±1.65		
FSGKRRKRKPR [HR97]			82.5±15.8	
YGRKKRRQRRR [TAT47-57]			58.7±7.43	478±20.8
